Results reported in US8173843B2, “Amphiphilic derivatives of α-C-phenyl-N-tert-butylnitrone” (TS Pharma, priority 2006, dated 2012).

Assays:
[1] = system: Sprague-Dawley rat embryo cortex cell cultures; assay: Doxorubicin (mitochondria-selective oxidative stress inducer)-induced cell death, viability of cortex cell cultures; type: cell-based; conditions: doxorubicin-induced mitochondrial oxidative stress; preliminary results
Experimental: (§1) The biological tests were carried out according to the procedures described in Journal of Neurochemistry, 2005, 95, 962-973. In order to evaluate the potentialities of these novel derivatives, we measured the ability of compound 10 to reduce and prevent apoptotic cell death phenomena. Hydrogen peroxide is very widely used as an apoptosis inducer in many cell models. Thus, the viability of Sprague-Dawley rat embryo cortex cell cultures is greatly impaired after treatment with hydrogen peroxide at concentrations of 50 to 200 μM. […] These same cultures were also subjected to a mitochondria-selective oxidative stress inducer, doxorubicin (Kotamraju S.; Konorev E. A.; Joseph J.; Kalyanaraman B. J. Biol. Chem. 2000, 275, 33 585-33 592). The observations are the same as for the induction with hydrogen peroxide. […] These preliminary results underline the great ability of compound 10 to prevent apoptosis phenomena induced at varying cell levels. […] A dysfunction of the mitochondrion, the central organelle in the control of apoptosis is involved in a very wide variety of pathological conditions. The anti-apoptotic properties of derivative 10 combined with its incorporation into the mitochondrion make it possible to envision its use in the fields mentioned above.

[2] = system: Sprague-Dawley rat embryo cortex cell cultures; assay: Hydrogen peroxide-induced apoptotic cell death, viability of cortex cell cultures; type: cell-based; conditions: compound at 10 μM; hydrogen peroxide 50 to 200 μM; preliminary results
Experimental: as §1

gerbils = conditions: after injection in gerbils; Oliver et al. 1990; cited from earlier work
[3] = literature; cited from earlier work
[4] = oxidative aging tests; Poeggeler et al. 2005; cited from earlier work

SMILES | protection against cell death / cell viability under doxorubicin [1] | restoration of viability of cultures after hydrogen peroxide treatment [2] | damage caused by cerebral ischemia (gerbils) | neuroprotective activity compared with PBN [3] | biological activity compared with PBN [4]
CC(C)(C)[N+]([O-])=Cc1ccccc1 [PBN, α-C-phenyl-N-tert-butylnitrone] | only a partial protection against cell death | very incompletely restore the viability | decrease in the damage caused by cerebral ischemia | – | –
CCCCCCCC(=O)NCc1ccc(/C=[N+](\[O-])C(C)(C)CNC(=O)C(O)[C@H](O)[C@H](O[C@@H]2OC(CO)[C@H](O)C(O)C2O)C(O)CO)cc1 (stereo partly shown) [Compound 10] | allows the cell viability to be completely maintained | completely restore the viability | – | – | –
CC(C)(C)[N+]([O-])=Cc1ccc(S(=O)(=O)[O-])cc1S(=O)(=O)[O-].[Na+].[Na+] [NXY-059] | – | – | – | neuroprotective activity greater than PBN | –
CCCCCCCC(=O)NCC(C)(C)[N+]([O-])=Cc1ccc(CNC(=O)[C@H](OC(C)=O)[C@@H](OC(C)=O)[C@H](O[C@@H]2O[C@H](COC(C)=O)[C@H](OC(C)=O)[C@H](OC(C)=O)[C@H]2OC(C)=O)[C@@H](COC(C)=O)OC(C)=O)cc1 [LPBNAH, N-[4-(octa-O-acetyllactobionamidomethylene)benzylidene]-N-[1,1-dimethyl-2-(N-octanoyl)amido]ethylamine N-oxide] | – | – | – | – | biological activity greater than that of PBN
